Legend:
[1] = tested on: B16F10 murine melanoma cells; test: B16F10 cell viability assay (EZ-Cytox); assay type: cell-based; conditions: concentrations ≤20 μM, 48 h
Experimental: B16F10 murine melanoma cells were obtained from the American Type Culture Collection (ATCC, Manassas, VA, USA). Phosphate buffer solution (PBS), Dulbecco’s modified Eagle’s medium (DMEM), streptomycin, penicillin, trypsin, and fetal bovine serum (FBS) were purchased from Gibco/Thermo Fisher Scientific (Carlsbad, CA, USA). B16F10 cells were cultured in a DMEM solution comprising 10% heat-inactivated FBS, penicillin (100 IU/mL), and streptomycin (100 µg/mL), at 37 °C in a humidified 5% CO2 atmosphere. Experiments for anti-melanogenesis activity, cell viability, and anti-tyrosinase activity were assayed on these cells in 96- or 6-well culture plates.
Cell viability assays for B16F10 were performed using the EZ-Cytox assay (EZ-3000, DoGenBio, Seoul, Korea). In brief, B16F10 cells were seeded in a 96-well plate at a density of 1 × 10^4 cells/well, and cultured at 37 °C for 24 h in a humidified 5% CO2 atmosphere. The next day, B16F10 cells were exposed to six concentrations of 1a or 1b (0, 1, 2, 5, 10, or 20 μM), and incubated under the same conditions for 48 h. Then, the EZ-Cytox solution (10 μL) was added to each well, and the cells mixed with the EZ-Cytox solution were further incubated for 2 h. At 450 nm, optical densities were measured using a microplate reader (VersaMax^TM, Molecular Devices, Sunnyvale, CA, USA).

[2] = molecular target: T1, cellular tyrosinase in B16F10 cells (Mus musculus, UniProt P11344); test: Cellular tyrosinase activity (L-DOPA oxidation) in α-MSH/IBMX-stimulated cells; assay type: cell-based, murine
T1 construct: endogenous in cells; host or cells: B16F10 murine melanoma cells, stimulated with alpha-MSH and IBMX
T1 sequence (P11344 19-533): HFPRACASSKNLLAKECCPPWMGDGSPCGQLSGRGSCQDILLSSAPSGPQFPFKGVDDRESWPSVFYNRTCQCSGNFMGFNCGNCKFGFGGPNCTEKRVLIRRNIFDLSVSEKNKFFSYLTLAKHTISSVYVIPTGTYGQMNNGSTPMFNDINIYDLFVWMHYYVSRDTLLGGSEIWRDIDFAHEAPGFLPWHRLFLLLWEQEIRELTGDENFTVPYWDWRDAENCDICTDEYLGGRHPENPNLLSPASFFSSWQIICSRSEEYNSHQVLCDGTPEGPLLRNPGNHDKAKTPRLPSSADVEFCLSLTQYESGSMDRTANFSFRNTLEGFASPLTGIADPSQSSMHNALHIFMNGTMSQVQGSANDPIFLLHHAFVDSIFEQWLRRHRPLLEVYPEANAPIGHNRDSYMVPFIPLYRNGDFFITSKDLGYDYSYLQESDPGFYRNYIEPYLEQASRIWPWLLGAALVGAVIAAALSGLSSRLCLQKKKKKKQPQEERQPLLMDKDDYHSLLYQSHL
Experimental: Cellular tyrosinase activity was assessed by measuring the oxidation rate of L-DOPA as previously described, with minor modifications. In brief, B16F10 cells were seeded in a 6-well plate at 1 × 10^5 cells/well, and allowed to adhere to well bottoms for 24 h, as described in Section 2.3.5. […]. Cells were then rinsed twice with PBS, exposed to 100 µL of lysis buffer solution (90 µL of 50 mM phosphate buffer (pH 6.5), 5 µL of 2 mM PMSF, and 5 µL of 20% Triton X-100), and lysed at −80 °C for 30 min. After defrosting, cell lysates were transferred to microcentrifuge tubes and centrifuged at 12,000 rpm for 30 min at 4°C, and supernatants (80 µL) were mixed with 20 µL of L-DOPA (2 mg/mL) in a 96-well plate, and incubated for 10 min at 37 °C. Absorbances were measured at 475 nm using a microplate reader (VersaMax^TM, Molecular Devices, Sunnyvale, CA, USA).

[3] = tested on: B16F10 murine melanoma cells; test: Extracellular melanin content (melanin release into medium) in α-MSH/IBMX-stimulated cells; assay type: cell-based
Experimental: The anti-melanogenic activities of 1a and 1b were determined using a standard melanin content assay, with minor changes. Briefly, B16F10 cells were seeded in the wells of a 6-well plate at a density of 1 × 10^5 cells/well, and allowed to adhere to well bottoms over 24 h under the conditions used for cell culture (Section 2.3.5). […] Absorbances of culture media at 405 nm were used to determine extracellular melanin contents.

mushroom tyrosinase = molecular target: T2, mushroom tyrosinase (Agaricus bisporus, UniProt C7FF04); test: Mushroom tyrosinase inhibition assay; assay type: biochemical
T2 construct: purchased Sigma-Aldrich
T2 sequence (C7FF04 1-392 limits assumed): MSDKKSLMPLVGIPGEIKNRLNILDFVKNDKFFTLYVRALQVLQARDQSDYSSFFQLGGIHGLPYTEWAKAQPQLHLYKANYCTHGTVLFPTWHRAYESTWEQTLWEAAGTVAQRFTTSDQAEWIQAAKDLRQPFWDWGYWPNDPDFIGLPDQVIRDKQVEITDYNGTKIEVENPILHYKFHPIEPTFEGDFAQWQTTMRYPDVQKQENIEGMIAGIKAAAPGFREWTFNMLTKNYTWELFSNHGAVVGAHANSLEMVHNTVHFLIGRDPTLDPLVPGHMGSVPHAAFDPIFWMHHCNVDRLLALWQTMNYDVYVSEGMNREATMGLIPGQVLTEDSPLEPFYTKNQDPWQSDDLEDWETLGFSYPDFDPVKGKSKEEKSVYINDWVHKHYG
Experimental: Mushroom tyrosinase inhibitory activity was determined as described previously, with minor modifications. L-Tyrosine was used as a substrate to determine enzyme activities. […] These dose-dependent inhibition experiments were carried out three times using three to five different concentrations of test compounds to determine IC50 values. Log–linear curves and their equations were derived from the observed percentages of inhibition.

[4] = tested on: B16F10 murine melanoma cells; test: Intracellular melanin content in α-MSH/IBMX-stimulated cells; assay type: cell-based
Experimental: The cultured cells were rinsed with PBS twice and pellets were dissolved in 200 µL of 1N-NaOH solution containing 10% DMSO for 1 h at 60 °C. Cell lysates were then transferred to a 96-well plate, and the melanin absorbances were measured in aqueous DMSO at 405 nm using a microplate reader (VersaMax^TM, Molecular Devices, Sunnyvale, CA, USA).

[5] = 10 µM, compared with kojic acid 20 µM
[6] = read-out: Mushroom tyrosinase inhibition (%)

For Oc1ccc(-c2nc3cc(C(F)(F)F)ccc3s2)cc1 [Compound 1a, 4-(5-(Trifluoromethyl)benzo[d]thiazol-2-yl)phenol], the “cytotoxic effect on B16F10 cell viability” value [1] was “Neither compound exhibited a significant cytotoxic effect”, the cellular tyrosinase activity [2, 5] was “reduced tyrosinase activity to that achieved by 20 µM kojic acid” and the “effect on cellular tyrosinase activity” value ([2]; 5, 10, 20 µM, IBMX + α-MSH, 48 h) was “significantly and concentration-dependently suppressed”. For the same compound, the melting point was 187.2 to 188.9 °C, the melanin release ([3]; 20 µM) was “reduced melanin release to control levels” and the “effect on melanin content in media” value ([3]; 5, 10, 20 µM, α-MSH (1 µM) + IBMX (200 µM), 48 h) was “concentration-dependently and significantly reduced melanin content increases”. For the same compound, the IC50 (mushroom tyrosinase; L-tyrosine as substrate) was 54.2 ± 0.82 µM, the inhibition at 10 µM (mushroom tyrosinase; [6]) was 30.4 ± 0.31% and the inhibition at 50 µM (mushroom tyrosinase; [6]) was 48.2 ± 0.25%. For the same compound, the “inhibition of α-MSH/IBMX-induced intracellular melanin increase” value [4, 5] was “more potently inhibited α-MSH/IBMX-induced increases in melanin than kojic acid at 20 µM” and the “effect on intracellular melanin content” value ([4]; 5, 10, 20 µM, α-MSH + IBMX, 48 h) was “significantly and concentration-dependently reduced intracellular melanin increases”.
